Laboratory results as given in ChEMBL document CHEMBL6127063, “N-substituted-4-(pyridin-4-ylalkyl)piperazine-1-carboxamides and related compounds as Leishmania CYP51 and CYP5122A1 inhibitors” (Bioorg Med Chem, 2024).
Active and inactive are the calls of the source. The rule behind the calls is not given here.

Key:
Leishmania donovani [1] = test: Antileishmanial activity against Leishmania donovani LV82 promastigotes assessed as inhibition of parasite proliferation; type: functional, organism-based
Leishmania donovani [2] = test: Antileishmanial activity against Leishmania donovani promastigotes infected in mouse J774 cells assessed as inhibition of parasite proliferation; type: functional, organism-based
Leishmania donovani [3] = test: Antileishmanial activity against Leishmania donovani LV82 promastigotes infected in female mouse Peritoneal macrophage cells incubated for 72 hrs by DAPI staining based analysis; type: functional, organism-based
Leishmania donovani [4] = test: Antileishmanial activity against Leishmania donovani overexpressing CYP5122A1 at 1.2 to […]; type: functional, organism-based; settings: dose 1.2-3.7 µM
Leishmania major [5] = test: Effect on lanosterol level in Leishmania major LV39 promastigotes assessed as fold change at 2 uM incubated for 48 hrs by LC-MS/MS analysis; type: functional
Leishmania major [6] = test: Effect on 4-CH2OH-LS sterol level in Leishmania major LV39 promastigotes assessed as fold change at 2 uM incubated for 48 hrs by LC-MS/MS analysis; type: functional
Leishmania major [7] = test: Effect on 4,14-Dimethylzymosterol level in Leishmania major LV39 promastigotes assessed as fold change at 2 uM incubated for 48 hrs by LC-MS/MS analysis; type: functional
Leishmania major [8] = test: Effect on 14-methylzymosterol level in Leishmania major LV39 promastigotes assessed as fold change at 2 uM incubated for 48 hrs by LC-MS/MS analysis; type: functional
Leishmania major [9] = test: Effect on 14-Methylfecosterol level in Leishmania major LV39 promastigotes assessed as fold change at 2 uM incubated for 48 hrs by LC-MS/MS analysis; type: functional
Leishmania major [10] = test: Effect on 5-Dehydroepisterol level in Leishmania major LV39 promastigotes assessed as fold change at 2 uM incubated for 48 hrs by LC-MS/MS analysis; type: functional
Leishmania major [11] = test: Effect on Ergosta-5,7-dienol level in Leishmania major LV39 promastigotes assessed as fold change at 2 uM incubated for 48 hrs by LC-MS/MS analysis; type: functional
Leishmania major [12] = test: Effect on Ergosterol level in Leishmania major LV39 promastigotes assessed as fold change at 2 uM incubated for 48 hrs by LC-MS/MS analysis; type: functional
Leishmania major [13] = test: Effect on Cholesterol level in Leishmania major LV39 promastigotes assessed as fold change at 2 uM incubated for 48 hrs by LC-MS/MS analysis; type: functional
Leishmania major [14] = test: Effect on lanosterol level in Leishmania major LV39 promastigotes assessed as fold change at 17 uM incubated for 48 hrs by LC-MS/MS analysis; type: functional
Leishmania major [15] = test: Effect on 4-CH2OH-LS sterol level in Leishmania major LV39 promastigotes assessed as fold change at 17 uM incubated for 48 hrs by LC-MS/MS analysis; type: functional
Leishmania major [16] = test: Effect on 4,14-Dimethylzymosterol level in Leishmania major LV39 promastigotes assessed as fold change at 17 uM incubated for 48 hrs by LC-MS/MS analysis; type: functional
Leishmania major [17] = test: Effect on 14-methylzymosterol level in Leishmania major LV39 promastigotes assessed as fold change at 17 uM incubated for 48 hrs by LC-MS/MS analysis; type: functional
Leishmania major [18] = test: Effect on 4-Methylzymosterol level in Leishmania major LV39 promastigotes assessed as fold change at 17 uM incubated for 48 hrs by LC-MS/MS analysis; type: functional
Leishmania major [19] = test: Effect on Zymosterol level in Leishmania major LV39 promastigotes assessed as fold change at 17 uM incubated for 48 hrs by LC-MS/MS analysis; type: functional
Leishmania major [20] = test: Effect on Fecosterol level in Leishmania major LV39 promastigotes assessed as fold change at 17 uM incubated for 48 hrs by LC-MS/MS analysis; type: functional
Leishmania major [21] = test: Effect on Episterol level in Leishmania major LV39 promastigotes assessed as fold change at 17 uM incubated for 48 hrs by LC-MS/MS analysis; type: functional
Leishmania major [22] = test: Effect on Cholesta-7,24-dienol level in Leishmania major LV39 promastigotes assessed as fold change at 17 uM incubated for 48 hrs by LC-MS/MS analysis; type: functional
Leishmania major [23] = test: Effect on 7-Dehydrodesmosterol level in Leishmania major LV39 promastigotes assessed as fold change at 17 uM incubated for 48 hrs by LC-MS/MS analysis; type: functional
Leishmania major [24] = test: Effect on 5-Dehydroepisterol level in Leishmania major LV39 promastigotes assessed as fold change at 17 uM incubated for 48 hrs by LC-MS/MS analysis; type: functional
Leishmania major [25] = test: Effect on Ergosta-5,7-dienol level in Leishmania major LV39 promastigotes assessed as fold change at 17 uM incubated for 48 hrs by LC-MS/MS analysis; type: functional
Leishmania major [26] = test: Effect on Ergostatetraenol level in Leishmania major LV39 promastigotes assessed as fold change at 17 uM incubated for 48 hrs by LC-MS/MS analysis; type: functional
Leishmania major [27] = test: Effect on Ergosterol level in Leishmania major LV39 promastigotes assessed as fold change at 17 uM incubated for 48 hrs by LC-MS/MS analysis; type: functional
Leishmania major [28] = test: Effect on Cholesterol level in Leishmania major LV39 promastigotes assessed as fold change at 17 uM incubated for 48 hrs by LC-MS/MS analysis; type: functional
[29] = Inhibition of full length his-tagged recombinant Leishmania donovani CYP51-32c
Leishmania major [30] = test: Effect on lanosterol level in Leishmania major LV39 promastigotes assessed as fold change at 25 uM incubated for 48 hrs by LC-MS/MS analysis; type: functional
Leishmania major [31] = test: Effect on 4-CH2OH-LS sterol level in Leishmania major LV39 promastigotes assessed as fold change at 25 uM incubated for 48 hrs by LC-MS/MS analysis; type: functional
Leishmania major [32] = test: Effect on 4,14-Dimethylzymosterol level in Leishmania major LV39 promastigotes assessed as fold change at 25 uM incubated for 48 hrs by LC-MS/MS analysis; type: functional
Leishmania major [33] = test: Effect on 14-methylzymosterol level in Leishmania major LV39 promastigotes assessed as fold change at 25 uM incubated for 48 hrs by LC-MS/MS analysis; type: functional
Leishmania major [34] = test: Effect on 14-Methylfecosterol level in Leishmania major LV39 promastigotes assessed as fold change at 25 uM incubated for 48 hrs by LC-MS/MS analysis; type: functional
Leishmania major [35] = test: Effect on 4-Methylzymosterol level in Leishmania major LV39 promastigotes assessed as fold change at 25 uM incubated for 48 hrs by LC-MS/MS analysis; type: functional
Leishmania major [36] = test: Effect on Zymosterol level in Leishmania major LV39 promastigotes assessed as fold change at 25 uM incubated for 48 hrs by LC-MS/MS analysis; type: functional
Leishmania major [37] = test: Effect on Fecosterol level in Leishmania major LV39 promastigotes assessed as fold change at 25 uM incubated for 48 hrs by LC-MS/MS analysis; type: functional
Leishmania major [38] = test: Effect on Episterol level in Leishmania major LV39 promastigotes assessed as fold change at 25 uM incubated for 48 hrs by LC-MS/MS analysis; type: functional
Leishmania major [39] = test: Effect on Cholesta-7,24-dienol level in Leishmania major LV39 promastigotes assessed as fold change at 25 uM incubated for 48 hrs by LC-MS/MS analysis; type: functional
Leishmania major [40] = test: Effect on 7-Dehydrodesmosterol level in Leishmania major LV39 promastigotes assessed as fold change at 25 uM incubated for 48 hrs by LC-MS/MS analysis; type: functional
Leishmania major [41] = test: Effect on 5-Dehydroepisterol level in Leishmania major LV39 promastigotes assessed as fold change at 25 uM incubated for 48 hrs by LC-MS/MS analysis; type: functional
Leishmania major [42] = test: Effect on Ergosta-5,7-dienol level in Leishmania major LV39 promastigotes assessed as fold change at 25 uM incubated for 48 hrs by LC-MS/MS analysis; type: functional
Leishmania major [43] = test: Effect on Ergostatetraenol level in Leishmania major LV39 promastigotes assessed as fold change at 25 uM incubated for 48 hrs by LC-MS/MS analysis; type: functional
Leishmania major [44] = test: Effect on Ergosterol level in Leishmania major LV39 promastigotes assessed as fold change at 25 uM incubated for 48 hrs by LC-MS/MS analysis; type: functional
Leishmania major [45] = test: Effect on Cholesterol level in Leishmania major LV39 promastigotes assessed as fold change at 25 uM incubated for 48 hrs by LC-MS/MS analysis; type: functional

Cc1ccccc1NC(=O)N1CCN(Cc2ccncc2)CC1
EC50 (Leishmania donovani [1]): > 100 µM

COc1cccc(NC(=O)N2CCN(Cc3ccncc3)CC2)c1
EC50 (Leishmania donovani [1]): > 100 µM

O=C(Nc1ccc(Cl)cc1)N1CCN(Cc2ccncc2)CC1
EC50 (Leishmania donovani [1]): > 100 µM

Cc1cc(NC(=O)N2CCN(Cc3ccncc3)CC2)cc(C)c1C
EC50 (Leishmania donovani [1]): > 50 µM

Cc1cccc(NC(=O)N2CCN(Cc3ccncc3)CC2)c1
EC50 (Leishmania donovani [1]): > 100 µM

CC(C)(C)c1cccc(NC(=O)N2CCN(Cc3ccncc3)CC2)c1
EC50 (Leishmania donovani [2]): > 50 µM
EC50 (Leishmania donovani [3]): > 50 µM

O=C(Nc1ccc(C(F)(F)F)cc1)N1CCN(Cc2ccncc2)CC1
EC50 (Leishmania donovani [1]): > 50 µM

COc1ccc(NC(=O)N2CCN(Cc3ccncc3)CC2)cc1
EC50 (Leishmania donovani [1]): > 100 µM

O=C(Nc1ccc(OCc2cc(C(F)(F)F)cc(C(F)(F)F)c2)cc1)N1CCN(CCc2ccncc2)CC1
Activity (Leishmania donovani [4]): Active

O=C(Nc1ccc(OCc2cc(C(F)(F)F)cc(C(F)(F)F)c2)cc1)N1CCN(CCn2cncn2)CC1
EC50 (Leishmania donovani [1]): > 50 µM
EC50 (Leishmania donovani [2]): > 50 µM

CC[C@@H]([C@H](C)O)n1ncn(-c2ccc(N3CCN(c4ccc(OC[C@@H]5CO[C@@](Cn6cncn6)(c6ccc(F)cc6F)C5)cc4)CC3)cc2)c1=O [POSACONAZOLE]
fold change (FC) (Leishmania major [5]): 3.6
fold change (FC) (Leishmania major [6]): 1.4
fold change (FC) (Leishmania major [7]): 10
fold change (FC) (Leishmania major [8]): 3.1
fold change (FC) (Leishmania major [9]): 321
fold change (FC) (Leishmania major [10]): 0.02
fold change (FC) (Leishmania major [11]): 0.022
fold change (FC) (Leishmania major [12]): 0.027
fold change (FC) (Leishmania major [13]): 1.3

O=C(Nc1cccc(F)c1)N1CCN(Cc2ccncc2)CC1
EC50 (Leishmania donovani [1]): > 100 µM

O=C(Nc1cc(C(F)(F)F)cc(C(F)(F)F)c1)N1CCN(Cc2ccncc2)CC1
EC50 (Leishmania donovani [3]): > 50 µM

COc1cc(NC(=O)N2CCN(Cc3ccncc3)CC2)cc(OC)c1
EC50 (Leishmania donovani [1]): > 100 µM

Cc1cc(C)cc(NC(=O)N2CCN(Cc3ccncc3)CC2)c1
EC50 (Leishmania donovani [1]): > 50 µM

O=C(Nc1ccc(OCc2cc(C(F)(F)F)cc(C(F)(F)F)c2)cc1)N1CCN(CCn2ccnc2)CC1
fold change (FC) (Leishmania major [14]): 31
fold change (FC) (Leishmania major [15]): 1.6
fold change (FC) (Leishmania major [16]): 1
fold change (FC) (Leishmania major [17]): 0.48
fold change (FC) (Leishmania major [18]): 3.2
fold change (FC) (Leishmania major [19]): 3.4
fold change (FC) (Leishmania major [20]): 3.2
fold change (FC) (Leishmania major [21]): 3.2
fold change (FC) (Leishmania major [22]): 3.3
fold change (FC) (Leishmania major [23]): 0.95
fold change (FC) (Leishmania major [24]): 0.69
fold change (FC) (Leishmania major [25]): 0.16
fold change (FC) (Leishmania major [26]): 2.4
fold change (FC) (Leishmania major [27]): 0.42
fold change (FC) (Leishmania major [28]): 1.9

O=C(Nc1ccc(OCc2ccccc2)cc1)N1CCN(CCc2ccncc2)CC1
EC50 (Leishmania donovani [1]): > 100 µM

O=C(Nc1cccc(Cl)c1)N1CCN(Cc2ccncc2)CC1
EC50 (Leishmania donovani [1]): > 100 µM

O=C(Nc1cc(F)cc(F)c1)N1CCN(Cc2ccncc2)CC1
EC50 (Leishmania donovani [1]): > 100 µM

O=C(Nc1ccc(OCc2cc(C(F)(F)F)cc(C(F)(F)F)c2)cc1)N1CCN(CCc2ccccc2)CC1
IC50 [29]: > 100 µM
EC50 (Leishmania donovani [1]): > 13 µM

O=C(Nc1ccccc1)N1CCN(Cc2ccncc2)CC1
EC50 (Leishmania donovani [1]): > 100 µM

O=C(Nc1ccc(OCc2cc(C(F)(F)F)cc(C(F)(F)F)c2)cc1)N1CCN(CCCc2ccccc2)CC1
EC50 (Leishmania donovani [1]): > 50 µM

CC(C)Oc1cccc(NC(=O)N2CCN(Cc3ccncc3)CC2)c1
EC50 (Leishmania donovani [1]): > 50 µM

O=C(Nc1ccc(F)cc1)N1CCN(Cc2ccncc2)CC1
EC50 (Leishmania donovani [1]): > 100 µM

OC(Cn1cncn1)(Cn1cncn1)c1ccc(F)cc1F [FLUCONAZOLE]
fold change (FC) (Leishmania major [30]): 0.47
fold change (FC) (Leishmania major [31]): 0.42
fold change (FC) (Leishmania major [32]): 1.8
fold change (FC) (Leishmania major [33]): 4.5
fold change (FC) (Leishmania major [34]): 229
fold change (FC) (Leishmania major [35]): 0.6
fold change (FC) (Leishmania major [36]): 0.39
fold change (FC) (Leishmania major [37]): 0.6
fold change (FC) (Leishmania major [38]): 0.6
fold change (FC) (Leishmania major [39]): 0.38
fold change (FC) (Leishmania major [40]): 0.044
fold change (FC) (Leishmania major [41]): 0.25
fold change (FC) (Leishmania major [42]): 0.17
fold change (FC) (Leishmania major [43]): 0.37
fold change (FC) (Leishmania major [44]): 0.31
fold change (FC) (Leishmania major [45]): 0.53

O=C(Nc1ccccc1Cl)N1CCN(Cc2ccncc2)CC1
EC50 (Leishmania donovani [1]): > 100 µM

Cc1ccc(NC(=O)N2CCN(Cc3ccncc3)CC2)cc1
EC50 (Leishmania donovani [1]): > 100 µM
